For data set [1], the system named is AMP- or PCP-induced hyperactivity. Put plainly: Psychostimulant (AMP or PCP)-induced hyperlocomotion in mice. It is filed as in vivo, mouse. From the text: (x) Assessment of Effects on Psychostimulant-Induced Hyperlocomotion in Mice
In both humans and experimental animals amphetamine (AMP) profoundly affects motor activity, sensorimotor function, sleep, attention, aggressive and sexual behaviors, learning and memory, operant behaviors, appetite and food intake. In addition, amphetamine induces psychotic reactions in normal individuals and exacerbates symptoms of schizophrenia in patients. In experimental animals several distinct behaviors are considered to be correlates of amphetamine psychosis. For example, amphetamine-induced hyperactivity in rodents is believed to model the psychotic symptoms of schizophrenia. Reversal of these behaviors is used to predict potential antipsychotic activity of drugs in pre-clinical studies.
(§1) In humans, phencyclidine (PCP) is known to produce a syndrome of behavioral effects which have many characteristics in common with schizophrenia. Therefore, antagonism of PCP effects might be evidence for antipsychotic efficacy of a compound.
Male NMRI mice (5-week old, Janvier, France) or C57BL/6J mice (6-week old, Janvier, France) were group housed and allowed ad-libitum access to food and water. A 12 hour light/dark cycle was imposed with lights-on period between 0530 and 1730 hours. All testing occurred between 700 and 1300 hours. All procedures were approved by Abbott Institutional Animal Care and Use Committee (USA) or Animal Welfare Officer (Germany) and were conducted in accordance with the National Institutes of Health Guide for Care and Use of Laboratory Animals guidelines and applicable national laws in the facilities accredited by the Association for the Assessment and Accreditation of Laboratory Animal Care.
On the day of experiment, animals were brought from the animal facility into the experimental room and were allowed to acclimatize for at least 30 minutes. Animals were then placed in the test cages for a habituation period of 60 minutes. The animals were then injected ip with the test compound and returned to the test cage. 30 Minutes later the mice were injected with d-amphetamine (2.0 mg/kg, AMP, Sigma, #A5880, sc) or phencyclidine (2.0 mg/kg, PCP, Sigma, #P3029, sc) Sigma, and returned to the test cages for 90 minutes. Each treatment group consisted of 8-10 animals. The data was acquired by Cage rack Photobeam system (SDI, San Diego Instruments, CA). The analyzed data were: fine movements, ambulations and total movements (fine+ambulations). Data was subjected to one- or two-way distribution-free ANOVA followed by Dunnett's and Tukey's post hoc tests.

The subject of data set [2] is MK-801-induced deficits in inhibitory avoidance. The data set is described as follows: 24-hour inhibitory avoidance in mouse (MK-801-induced deficit). It is filed as in vivo. The settings on record: CD1 mice; i.p.; high dose of 10 mg/kg; compared to Veh-MK-801 (0.1 mg/kg). From the text: (viii) Inhibitory Avoidance in Mouse
Specifically in the hippocampus CA1 area, N-methyl-D-aspartic acid (NMDA) receptors are known to regulate synaptic plasticity, long term-potentiation (LTP), and learning and memory processes, including short- and long-term memories. […] The inhibitory avoidance task involves the uses of a two-compartment step through apparatus (Ugo Basile, Collegeville, Pa.) that measures the animal's ability to remember a brief noxious stimulus (foot shock), and is considered a measure of trial learning, and memory. (Bitner, R. S., et al. J. Neurosci. 2007, 27(39), 10578-10587). The purpose of this experiment was to test the ability of a 5HTc agonist to attenuate MK-801-induced deficits in the 24-hour inhibitory avoidance test. Effects against MK-801-induced cognitive impairment may indicate a potential efficacy in treating cognitive deficits of schizophrenia.
Following a 2 hour habituation period, CD1 mice first received i.p. treatment with the test compound at 0, 1, 3, 10 mg/kg. 20 minutes later mice then received either MK-801 at 0.1 mg/kg (dissolved in 0.3% tartaric acid) or vehicle (Veh, water). […] The latency to enter the adjoining dark chamber was recorded, and an inescapable foot shock (0.3 mA, 1 second duration) was presented to the mouse. […] The latency to enter the dark chamber was recorded and was the dependent variable measured for assessing memory retention.

The test system of data set [3] is PCP-induced hyperlocomotion. The data set is described as follows: Psychostimulant (PCP)-induced hyperlocomotion in rat. It is filed as in vivo. The note with it: male CD rats; i.p. 1, 3, 10 mg/kg 30 min before PCP 2 mg/kg sc; significant at 1 mg/kg and 10 mg/kg. As to the method:
(vii) Assessment of Effects on Psychostimulant-Induced Hyperlocomotion in Rat
as §1
Male CD rats with a body weight of 316-394 g from Charles River (Portage, Mich.) were used in this study. The rats were habituated to the test room for 60 minutes. The rats were then placed into the locomotor activity chambers (AccuScan Instruments) for 30 minutes and then were dosed i.p. with Example 115 at 0, 1, 3 and 10 mg/kg. The rats were dosed sc 30 minutes later with PCP at 0 or 2 mg/kg. The activity was measured for 150 minutes in total and 90 minutes post PCP.

Structures are written as SMILES. Entries after “also recorded” stand apart in the source; their conditions may differ.

For `CN1C[C@@H]2CNC(=O)c3cc(-c4ccc(F)cc4)ccc3[C@H]2C1` [Example 115, (3aS,10bS)-8-(4-Fluorophenyl)-2-methyl-1,2,3,3a,4,5-hexahydrobenzo[e]pyrrolo[3,4-c]azepin-6(10bH)-one], in data set [1] (after ip test compound, before psychostimulant), the spontaneous activity entry is given as “without affecting spontaneous activity”. Besides, the AMP-induced hyperactivity entry in data set [1] (test compound ip 30 min before d-amphetamine 2.0 mg/kg sc) was “attenuated AMP-induced hyperactivity in mice significantly and in a dose dependent manner; also recorded: attenuating the affect of d-amphetamine (AMP)”. Moreover, the “transfer latency, 24-hour inhibitory avoidance” value in data set [2] is reported as “significantly increased transfer latencies; also recorded: dose-dependent improvement in mouse 24-hour inhibitory avoidance scores”. Further, the “PCP-induced hyperlocomotion (distance traveled)” value in data set [3] is “significantly attenuate the PCP-induced hyperlocomotion; also recorded: attenuating the affect of phencyclidine (PCP)”.

(Values after patent US8846951B2 (AbbVie Inc., priority 2009, dated 2014).)
